We go through three compounds from patent publication US20260306514A1, “ORAL PHARMACEUTICAL FORMULATIONS CONTAINING 4-((2-HYDROXY-3-METHOXYBENZYL)AMINO) BENZENESULFONAMIDE DERIVATIVES” (Cadrenal Therapeutics, Inc., priority 2022, published 2026).

One series concerns 12-LOX. As to conditions: in words; cited from earlier work.
The nature of another series: Aqueous solubility. The format is physicochemical. As to conditions: for solubility in water: in words.
Series [1] is described as follows: Oral bioavailability of Compound 1 suspension in mice. As to conditions: mouse, in vivo, suspension in 0.5% methylcellulose. An excerpt: While this vehicle is sufficient for short term efficacy studies, the inventors needed a more robust and clinically relevant formulation for the longer dosing regimens required for mouse efficacy models.
A short description of series [2]: Solubility of Compound 1 in organic solvents relevant to spray drying (Table 3). In kind it is physicochemical. The conditions noted are these: for solubility: organic solvent or mixture, read-out: Solubility Concentration. The protocol:
THF was the most suitable solvent, and could be combined with other solvents such as acetone, ethanol and water to enable dissolution of the drug, polymer and additives in the formulation. Furthermore, given the anticipated dose of the product, maximizing the drug loading in the amorphous dispersion was essential.
Solubility in organic solvents relevant to spray draying were conducted ([…]), showing that THF with EtOH in water was preferred (85/10/5).

Series [3] is described as follows: Rat PK of Compound 1, IV and oral suspension (Table 1). Details: species or system rats. As to conditions: in vivo; for bioavailability: po, rats. An excerpt:
The intravenous formulation uses cyclodextrin (CD) to increase solubility. However, a drug loading of <10% is not suitable for oral formulation. The inventors explored a new approach to oral formulation without guidance from the art including lipid solubility screening in various non-aqueous vehicles, self micro-emulsifying systems with oils, surfactants, and co-surfactants, amorphous solid dispersions via hot melt and spray drying, micronization, and in silico screen of supercritical fluid nanoparticle engineering. […] The pharmaceutical acceptable carrier can be a polymer.

The nature of series [4]: Rat PK of Compound 1, IV and oral solution (Table 2). The format is in vivo, rats. An excerpt:
The intravenous formulation uses cyclodextrin (CD) to increase solubility. […] The inventors explored a new approach to oral formulation without guidance from the art including lipid solubility screening in various non-aqueous vehicles, self micro-emulsifying systems with oils, surfactants, and co-surfactants, amorphous solid dispersions via hot melt and spray drying, micronization, and in silico screen of supercritical fluid nanoparticle engineering. […] The pharmaceutical acceptable carrier can be a polymer.

Converted amounts (≈) assume the structure as drawn. Where two headings read alike, the source gives them in different places.

For `COc1cccc(CNc2ccc(S(=O)(=O)Nc3nc4ccccc4o3)cc2)c1O` [Compound 2, N-(benzo[d]oxazol-2-yl)-4-((2-hydroxy-3-methoxybenzyl)amino)benzenesulfonamide], in the series with 12-LOX, the 12-LOX inhibitor selectivity entry was “selective” and the 12-LOX inhibitory potency entry is “highly potent”. In addition, in the series “Aqueous solubility”, the solubility in water result is on record as “poor solubility in water”.

For `COc1cccc(CNc2ccc(S(=O)(=O)Nc3nc4ccccc4s3)cc2)c1O` [Compound 1, N-(benzo[d]thiazol-2-yl)-4-((2-hydroxy-3-methoxybenzyl)amino)benzenesulfonamide], the bioavailability was under 5% in series [1]; under 0.5% in series [3] (suspension dosing, read-out: Bioavailability); under 5% in series [3] (suspension in 0.5% methylcellulose, read-out: oral bioavailability); 3% in series [4] (in vivo, po, 30 mg/kg, PO solution, 30 mg/Kg, read-out: F (bioavailability, fraction absorbed)). Moreover, the Soluble result is on record as “Yes” in series [2] (50:45:5 Tetrahydrofuran:Acetone:Water); “No” in series [2] (50:50 Acetone:Methanol); “No” in series [2] (50:50 Methylene Chloride:Methanol); “Yes” in series [2] (85:10:5 Tetrahydrofuran:Ethanol:Water); “Yes” in series [2] (95:5 Tetrahydrofuran:Water). Also, the solubility was 10000 µg/mL (≈ 22.6 mM) in series [2] (50:45:5 tetrahydrofuran:acetone:water); under 2500 µg/mL in series [2] (50:50 acetone:methanol); under 2500 µg/mL in series [2] (50:50 methylene chloride:methanol); 10000 µg/mL (≈ 22.6 mM) in series [2] (85:10:5 tetrahydrofuran:ethanol:water); 10000 µg/mL (≈ 22.6 mM) in series [2] (95:5 tetrahydrofuran:water). For the same compound, the “solubilization by solvents utilized in the prior art” value in series [2] (majority of solvents, in words) was “did not solubilize Compound 1 to an adequate level”. Moreover, the AUC(0-inf) in series [3] (IV, 3 mg/kg) amounted to 43600 ng·h/mL; in series [3] (IV, 10 mg/kg) it was 100000 ng·h/mL; in series [3] (IV, 30 mg/kg), 214000 ng·h/mL; in series [3] (oral suspension, 3 mg/kg), 237 ng·h/mL; in series [3] (oral suspension, 10 mg/kg), 478 ng·h/mL; in series [3] (oral suspension, 30 mg/kg), 768 ng·h/mL. Also, the AUC(0-t) in series [3] (IV, 3 mg/kg) was 43600 ng·h/mL; in series [3] (IV, 10 mg/kg) it was 100000 ng·h/mL; in series [3] (IV, 30 mg/kg), 213000 ng·h/mL; in series [3] (oral suspension, 3 mg/kg), 203 ng·h/mL; in series [3] (oral suspension, 10 mg/kg) it was 399 ng·h/mL; in series [3] (oral suspension, 30 mg/kg) it was 737 ng·h/mL. Also, the area under the curve AUC(0-t) was 50700 ng·h/mL in series [4] (in vivo, IV, 3 mg/Kg) and 15200 ng·h/mL in series [4] (in vivo, PO solution, 30 mg/Kg). Besides, the Cmax in series [3] (IV, 3 mg/kg) was 49600 ng/mL; in series [3] (IV, 10 mg/kg) it was 91200 ng/mL; in series [3] (IV, 30 mg/kg) it was 180000 ng/mL; in series [3] (oral suspension, 3 mg/kg) it was 30 ng/mL; in series [3] (oral suspension, 10 mg/kg), 71.3 ng/mL; in series [3] (oral suspension, 30 mg/kg), 142 ng/mL. For the same compound, the time of peak concentration (Tmax) amounted to 0.083 h in series [3] (IV, 3 mg/kg); 0.083 h in series [3] (IV, 10 mg/kg); 0.083 h in series [3] (IV, 30 mg/kg); 4 h in series [3] (oral suspension, 3 mg/kg); 2.67 h in series [3] (oral suspension, 10 mg/kg); 2.67 h in series [3] (oral suspension, 30 mg/kg). The half-life was 2.58 h in series [3] (IV, 3 mg/kg); 2.98 h in series [3] (IV, 10 mg/kg); 2.56 h in series [3] (IV, 30 mg/kg); 1.82 h in series [3] (oral suspension, 3 mg/kg); 3.41 h in series [3] (oral suspension, 10 mg/kg); 2.46 h in series [3] (oral suspension, 30 mg/kg). For the same compound, the half-life is 2.59 h in series [4] (in vivo, IV, 3 mg/Kg) and 2.69 h in series [4] (in vivo, PO solution, 30 mg/Kg). Further, the 12-LOX inhibitory potency entry in the series with 12-LOX is recorded as “highly potent”. The solubility in water result in the series “Aqueous solubility” was “poor solubility in water”. In the series “Aqueous solubility” (phosphate buffer or simulated intestinal fluid), the solubility enhancement result is “greatly enhanced”. For the same compound, the “C0 or Cmax” value in series [4] (IV, 3 mg/Kg, C0 extrapolated to T = 0 h) was 63725 ng/mL; in series [4] (PO solution, 30 mg/Kg) it was 6610 ng/mL. In addition, the clearance in series [4] (in vivo, IV, 3 mg/Kg, read-out: Cl_obs (observed clearance)) was 0.986 mL/min/kg. In series [4] (in vivo, IV, 3 mg/Kg, read-out: Vss_obs), the Vd amounted to 0.101 L/kg.

In the case of `COc1cccc(CNc2ccc(S(=O)(=O)Nc3cccc(C(C)C)c3)cc2)c1O` [Compound 3, 4-((2-hydroxy-3-methoxybenzyl)amino)-N-(3-isopropylphenyl)benzenesulfonamide], in the series with 12-LOX, the 12-LOX inhibitor selectivity result is on record as “selective” and the 12-LOX inhibitory potency entry is listed as “highly potent”. Also, the solubility in water entry in the series “Aqueous solubility” is on record as “poor solubility in water”.
